In the oligonucleotide strings, read from the 5' end, every base follows the letter of its sugar. An asterisk marks phosphorothioate; unmarked linkages are phosphodiester. Other units and linkages are bracketed, terminal groups are in braces. A string of capitals states the bases alone. [Ab] = 3'-terminal abasic nucleotide; e = 2'-O-(2-methoxyethyl) (MOE); d = 2'-deoxy (DNA); m = 2'-O-methyl; r = 2'-OH (RNA); {P} = phosphate; f = 2'-fluoro
Test system: PCSK9 mRNA
Assay: In vitro screening of modified dsRNAs targeted to PCSK9 (Table 2b; cell type not given)
Assay type: cell-based
Settings: 30 nM siRNA
Description: For transfection with siRNA, HuH7, HepG2, or HeLa cells were seeded at a density of 2.0×10^4 cells/well in 96-well plates and transfected directly. Transfection of siRNA (30 nM for single dose screen) was carried out with lipofectamine 2000 (Invitrogen GmbH, Karlsruhe, Germany, cat. No. 11668-019) as described by the manufacturer.
24 hours after transfection HuH7 and HepG2 cells were lysed and PCSK9 mRNA levels were quantified with the Quantigene Explore Kit (Genosprectra, Dumbarton Circle Fremont, USA, cat. No. QG-000-02) according to the protocol. PCSK9 mRNA levels were normalized to GAP-DH mRNA. For each siRNA eight individual datapoints were collected. siRNA duplexes unrelated to PCSK9 gene were used as control. The activity of a given PCSK9 specific siRNA duplex was expressed as percent PCSK9 mRNA concentration in treated cells relative to PCSK9 mRNA concentration in cells treated with the control siRNA duplex.
Tables 1b and 2b (and FIG. 6A) summarize the results and provide examples of in vitro screens in different cell lines at different doses. Silencing of PCSK9 transcript was expressed as percentage of remaining transcript at a given dose.

AD-12369: modified dsRNA, SEQ ID NO:1435/1436 (chain 1 GCCUGGAGUUUAUUCGGAATT; chain 2 rUrUrCrCrGrArArUrArArArCrUrCrCrArGrGrCdT*dT; chain 1: DNA at T, 2'-MOE at CU, RNA at AG, linkages o19 s1 (s phosphorothioate, o phosphodiester), methylation of C and T or U not given here)
Remaining mRNA in % of controls at siRNA conc. of 30 nM: 26%

AD-12050: modified dsRNA, SEQ ID NO:1335/1336 (chain 1 rGmCmCmUrGrGrArGmUmUmUrAmUmUmCrGrGrArAdTdT[Ab]; chain 2 rUrUrCrCrGrArArUrArArArCrUrCrCrArGrGrCdTdT[Ab])
Remaining mRNA in % of controls at siRNA conc. of 30 nM: 16%

AD-12042: modified dsRNA, SEQ ID NO:1319/1320 (chain 1 rGrCrCrUrGrGrArGrUrUrUrArUrUrCrGrGrArAdT*dT; chain 2 mUrUrCrCrGrArArUrArArArCrUrCrCrArGrGrCdT*dT)
Remaining mRNA in % of controls at siRNA conc. of 30 nM: 12%

AD-12356: modified dsRNA, SEQ ID NO:1409/1410 (chain 1 fGmCfCmUfGmGfAmGfUmUfUmAfUmUfCmGfGmAfA; chain 2 mUrUmCrCrGrArAmUrArArArCrUmCmCrArGrGrCdT*dT)
Remaining mRNA in % of controls at siRNA conc. of 30 nM: 25%

AD-12402: modified dsRNA, SEQ ID NO:1499/1500 (chain 1 rGmCmCmUrGrGrArGmUmUmUrAmUmUmCrGrGrArA; chain 2 {P}-fUfUfCfCrGrArAfUrArArAfCfUfCfCrArGrGfC*fC*fU)
Remaining mRNA in % of controls at siRNA conc. of 30 nM: 14%

AD-12342: modified dsRNA, SEQ ID NO:1383/1384 (chain 1 fGmCfCmUfGmGfAmGfUmUfUmAfUmUfCmGfGmAfAdT*dT; chain 2 rUrUrCrCrGrArAmUrArArArCrUrCmCrArGrGrCdT*dT)
Remaining mRNA in % of controls at siRNA conc. of 30 nM: 13%

AD-12059: modified dsRNA, SEQ ID NO:1353/1354 (chain 1 rGmCrCmUrGmGrAmGrUmUrUmArUmUrCmGrGmArA; chain 2 mUrUmCrCrGrArAmUrArArArCrUmCmCrArGrGrCdT*dT)
Remaining mRNA in % of controls at siRNA conc. of 30 nM: 23%

AD-12046: modified dsRNA, SEQ ID NO:1327/1328 (chain 1 rGmCmCmUrGrGrArGmUmUmUrAmUmUmCrGrGrArA; chain 2 rUrUrCrCrGrArArUrArArArCrUrCrCrArGrGrC*mC*mU)
Remaining mRNA in % of controls at siRNA conc. of 30 nM: 13%

AD-12372: modified dsRNA, SEQ ID NO:1441/1442 (chain 1 GCCUGGAGUUUAUUCGGAATT; chain 2 {P}-mUfUmCfCmGfAmAfUmAfAmAfCmUfCmCfAmGfGmC*fC*mU; chain 1: DNA at T, 2'-MOE at CU, RNA at AG, linkages o19 s1 (s phosphorothioate, o phosphodiester), methylation of C and T or U not given here)
Remaining mRNA in % of controls at siRNA conc. of 30 nM: 60%

AD-12063: modified dsRNA, SEQ ID NO:1361/1362 (chain 1 rGmCrCmUrGmGrAmGrUmUrUmArUmUrCmGrGmArA; chain 2 rUrUrCrCrGmAmArUrAmAmArCrUrCrCrAmGmGmC*mC*mU)
Remaining mRNA in % of controls at siRNA conc. of 30 nM: 19%

AD-12368: modified dsRNA, SEQ ID NO:1433/1434 (chain 1 GCCUGGAGUUUAUUCGGAATT; chain 2 rUrUrCrCrGrArAmUrArArArCrUrCmCrArGrGrCdT*dT; chain 1: DNA at T, 2'-MOE at CU, RNA at AG, linkages o19 s1 (s phosphorothioate, o phosphodiester), methylation of C and T or U not given here)
Remaining mRNA in % of controls at siRNA conc. of 30 nM: 40%

AD-12340: modified dsRNA, SEQ ID NO:1379/1380 (chain 1 rGmCmCmUrGrGrArGmUmUmUrAmUmUmCrGrGrArA; chain 2 {P}-mUfUmCfCmGfAmAfUmAfAmAfCmUfCmCfAmGfGmC)
Remaining mRNA in % of controls at siRNA conc. of 30 nM: 19%

AD-12394: modified dsRNA, SEQ ID NO:1483/1484 (chain 1 rGfCfCfUrGrGrArGrGfUfUfUrAfUfUfCrGrGrArA; chain 2 mUrUmCrCrGrArAmUrArArArCrUmCmCrArGrGrCdT*dT)
Remaining mRNA in % of controls at siRNA conc. of 30 nM: 75%

AD-12349: modified dsRNA, SEQ ID NO:1397/1398 (chain 1 GCCUGGNAGUUUAUUCGGAATT; chain 2 {P}-mUfUmCfCmGfAmAfUmAfAmAfCmUfCmCfAmGfGmCdT*dT; chain 1: chemistry not given here; further chemistry not fully specified)
Remaining mRNA in % of controls at siRNA conc. of 30 nM: 11%

AD-12387: modified dsRNA, SEQ ID NO:1469/1470 (chain 1 rGfCfCfUrGrGrArGrGfUfUfUrAfUfUfCrGrGrArA; chain 2 fUfUfCfCrGrArAfUrArArAfCfUfCfCrArGrGfC*fC*fU)
Remaining mRNA in % of controls at siRNA conc. of 30 nM: 13%

AD-12343: modified dsRNA, SEQ ID NO:1385/1386 (chain 1 fGmCfCmUfGmGfAmGfUmUfUmAfUmUfCmGfGmAfAdT*dT; chain 2 mUrUmCrCrGrArAmUrArArArCrUmCmCrArGrGrCdT*dT)
Remaining mRNA in % of controls at siRNA conc. of 30 nM: 24%

AD-12401: modified dsRNA, SEQ ID NO:1497/1498 (chain 1 rGmCmCmUrGrGrArGmUmUmUrAmUmUmCrGrGrArAdT*dT; chain 2 {P}-fUfUfCfCrGrArAfUrArArAfCfUfCfCrArGrGfC*fC*fU)
Remaining mRNA in % of controls at siRNA conc. of 30 nM: 13%

AD-12363: modified dsRNA, SEQ ID NO:1423/1424 (chain 1 GCCUGGAGUUUAUUCGGAA; chain 2 rUrUrCrCrGmAmArUrAmAmArCrUrCrCrAmGmGmC*mC*mU; chain 1: sugars from the 5' end rererererererererer, all phosphodiester, methylation of C and T or U not given here)
Remaining mRNA in % of controls at siRNA conc. of 30 nM: 11%

AD-12392: modified dsRNA, SEQ ID NO:1479/1480 (chain 1 rGfCfCfUrGrGrArGrGfUfUfUrAfUfUfCrGrGrArA; chain 2 rUrUrCrCrGrArArUrArArArCrUrCrCrArGrGrCdT*dT)
Remaining mRNA in % of controls at siRNA conc. of 30 nM: 28%

AD-12375: modified dsRNA, SEQ ID NO:1447/1448 (chain 1 rGfCfCfUrGrGrArGfUfUfUrAfUfUfCrGrGrArAdT*dT; chain 2 rUrUrCrCrGrArArUrArArArCrUrCrCrArGrGrCdT*dT)
Remaining mRNA in % of controls at siRNA conc. of 30 nM: 16%

AD-12367: modified dsRNA, SEQ ID NO:1431/1432 (chain 1 GCCUGGAGUUUAUUCGGAATT; chain 2 rUrUrCrCrGmAmArUrAmAmArCrUrCrCrAmGmGmCdT*dT; chain 1: DNA at T, 2'-MOE at CU, RNA at AG, linkages o19 s1 (s phosphorothioate, o phosphodiester), methylation of C and T or U not given here)
Remaining mRNA in % of controls at siRNA conc. of 30 nM: 42%

AD-12400: modified dsRNA, SEQ ID NO:1495/1496 (chain 1 rGrCrCrUrGrGrArGrUrUrUrArUrUrCrGrGrArAdT*dT; chain 2 {P}-fUfUfCfCrGrArAfUrArArAfCfUfCfCrArGrGfC*fC*fU)
Remaining mRNA in % of controls at siRNA conc. of 30 nM: 12%

AD-12361: modified dsRNA, SEQ ID NO:1419/1420 (chain 1 GCCUGGAGUUUAUUCGGAA; chain 2 rUrUrCrCrGrArAmUrArArArCrUrCmCrArGrGrCdT*dT; chain 1: sugars from the 5' end rererererererererer, all phosphodiester, methylation of C and T or U not given here)
Remaining mRNA in % of controls at siRNA conc. of 30 nM: 20%

AD-12347: modified dsRNA, SEQ ID NO:1393/1394 (chain 1 rGrCrCrUrGrGrArGrUrUrUrArUrUrCrGrGrArAdT*dT; chain 2 {P}-mUfUmCfCmGfAmAfUmAfAmAfCmUfCmCfAmGfGmCdT*dT)
Remaining mRNA in % of controls at siRNA conc. of 30 nM: 11%

AD-12346: modified dsRNA, SEQ ID NO:1391/1392 (chain 1 fGmCfCmUfGmGfAmGfUmUfUmAfUmUfCmGfGmAfAdT*dT; chain 2 rUrUrCrCrGmAmArUrAmAmArCrUrCrCrAmGmGmC*mC*mU)
Remaining mRNA in % of controls at siRNA conc. of 30 nM: 13%

AD-12389: modified dsRNA, SEQ ID NO:1473/1474 (chain 1 rGfCfCfUrGrGrArGrGfUfUfUrAfUfUfCrGrGrArA; chain 2 {P}-mUfUmCfCmGfAmAfUmAfAmAfCmUfCmCfAmGfGmC*fC*mU)
Remaining mRNA in % of controls at siRNA conc. of 30 nM: 16%

AD-12039: modified dsRNA, SEQ ID NO:1313/1314 (chain 1 rGmCmCmUrGrGrArGmUmUmUrAmUmUmCrGrGrArAdT*dT; chain 2 rUmUrCrCrGrArArUrArArArCrUrCrCrArGrGrCdT*dT)
Remaining mRNA in % of controls at siRNA conc. of 30 nM: 29%

AD-12066: modified dsRNA, SEQ ID NO:1367/1368 (chain 1 rGmCrCmUrGmGrAmGrUmUrUmArUmUrCmGrGmArA; chain 2 rUrUrCrCrGrArAmUrArArArCrUrCmCrArGrGrC*mC*mU)
Remaining mRNA in % of controls at siRNA conc. of 30 nM: 20%

AD-12382: modified dsRNA, SEQ ID NO:1459/1460 (chain 1 rGfCfCfUrGrGrArGfUfUfUrAfUfUfCrGrGrArAdT*dT; chain 2 {P}-fUfUfCfCrGrArAfUrArArAfCfUfCfCrArGrGfCdT*dT)
Remaining mRNA in % of controls at siRNA conc. of 30 nM: 7%

AD-12068: modified dsRNA, SEQ ID NO:1371/1372 (chain 1 rGmCrCmUrGmGrAmGrUmUrUmArUmUrCmGrGmArAdTdT[Ab]; chain 2 rUrUrCrCrGrArArUrArArArCrUrCrCrArGrGrCdTdT[Ab])
Remaining mRNA in % of controls at siRNA conc. of 30 nM: 18%

— patent US20120016009A1, “Optimized Methods For Delivery Of DSRNA Targeting The PCSK9 Gene” (priority 2008, published 2012)
